Columns and labels:
Format in all cases: in vivo
Plasmodiophora brassicae [1] = experiment: Cabbage clubroot control test, pot test, cyazofamid vs chlorothalonil (Example 3 / Comparative Example 3); design: key to Disease control value: control value = (1 − treated/control severity) × 100; key to Disease severity: severity = Σ(plants × index 0-4)/(plants × 4) × 100; conditions: for Disease control value / Disease severity: 57 days after settled planting
Source text: (§1) Disease severity={Σ(number of each index of diseased plants×disease index)/(number of plants surveyed×4)}×100
(§2) Disease control value={1−(treatment disease severity/control disease severity)}×100
(§3) 0: No adhesion of clubroot, 1: clubroot adhesion to lateral root, 2: clubroot adhesion to the entire lateral root or clubroot adhesion to a part of tap root, 3: adhesion of large clubroot to tap root, and 4: clubroot adhesion to the entire tap root.
A spore suspension of Plasmodiophora brassicae (fungus density: 1×10^5 fungi/g dry soil) was inoculated into a sterilization soil adjusted to pH of 6.0 with Sandoseto and after introducing the resulting test soil into a 1/5000 a pot, a cabbage (variety: Okina) seedling grown in a cell seedling tray (128 cells/seedling box) was settled-planted by establishing five plantings for each test section having a size of 0.02 m^2 for one plant. Immediately, 4 days, 7 days and 14 days after settled planting, the chemical solution for spraying prepared by the same method as in Example 1(1) was drenched into the soil in a ratio of 250 ml/plant. Fifty-seven days after the settled planting, the number of each index of clubroot adhesion to the root was investigated. For comparison, the same test was carried out on a control section where a soil drench treatment with the chemical solution for spraying was not applied.
A chemical solution for spraying in a concentration of 800 ppm was prepared by diluting 40% chlorothalonil (Daconil 1000 [trade name], manufactured by SDS K.K.) with water.
The test was carried out by the same procedure as in Example 3 except that the chemical solution (cyazofamid) for spraying was replaced by the chemical solution (chlorothalonil) for spraying prepared in Comparative Example 3(1).
(§4) The disease severity and disease control value of Example 3 and Comparative Example 3 were determined by the same methods as in Example 1 and Comparative Example 1. In addition, the weight of cabbage in the aerial part was measured. Furthermore, the test result was shown by the average value of five plantings.

Plasmodiophora brassicae [2] = experiment: Influence of rainfall on clubroot control effect in cabbage (Example 4 / Comparative Example 4); design: key to Disease severity: 0–100 index: Σ(plants×disease index 0–4)/(plants×4)×100; key to Disease control value: {1−(treatment severity/control severity)}×100; 100 = full control; conditions: pot; for Disease control value / Disease severity: 67 days after settled planting
Method: as §1, §2, §3
The test was carried out by the same method as in Example 3 except for preparing an area subjected to a rainfall treatment of 20 mm by means of a rainfall apparatus (a treatment at a rate of 10 mm/hour for 2 hours) the day before treatment, and an area not subjected to the rainfall treatment. Sixty-seven days after the settled planting, the number of each index of clubroot adhesion to the root was investigated. For comparison, the same test was carried out on a control section where a soil drench treatment with the chemical solution for spraying was not applied.
(§5) The test was carried out by the same method as in Example 4 except that in place of the soil drench treatment with the chemical solution for spraying, 30 kg/10 a of 0.3% flusulfamide (dust formulation of Nebijin [trade name], manufactured by Mitsui Chemicals Agro, Inc.) was applied to the test soil just before the settled planting and incorporated into the soil by means of a small mixer (interfusion depth: 15 cm).
as §4, with “4” for “3”

Plasmodiophora brassicae [3] = experiment: Cabbage clubroot control test, pot test (Example 1 / Comparative Example 1); design: key to Disease control value: {1−(treatment severity/control severity)}×100; key to Disease severity: Σ(plants×index 0-4)/(plants×4)×100; 0 = no clubroot; conditions: for Disease control value / Disease severity: 60 days after settled planting
Method: A chemical solution for spraying at 50 ppm was prepared by diluting 9.4% w/w cyazofamid (Ranman [trade name] flowable, manufactured by Ishihara Sangyo Kaisha Ltd.) with water.
A spore suspension of Plasmodiophora brassicae (fungus density: 1×10^5 fungi/g dry soil) was inoculated into a sterilization soil adjusted to pH of 6.2 with Sandoseto and after introducing the resulting test soil into a 1/5000 a pot, a cabbage (variety: Okina) seedling grown in a cell seedling tray (128 cells/seedling box) was settled-planted by establishing five plantings for each test section having a size of 0.02 m^2 per one plant. Just after the settled planting, 3 days, 7 days, 10 days and 14 days after the settled planting, the chemical solution for spraying prepared in (1) was applied by soil drench at a ratio of 250 ml/plant. Sixty days after the settled planting, the number of each index of clubroot adhesion to the root was investigated. For comparison, the same test was carried out on a control section where a soil drench treatment with the chemical solution for spraying was not applied.
as §5, with “1(2)” for “4”, “before” for “before the”
In Example 1 and Comparative Example 1, the adhesion of clubroot was investigated by pulling out the root of cabbage. The adhesion of clubroot was investigated by calculating the disease severity using the following formula. In addition, the weight of cabbage in the aerial part was measured. Furthermore, the test result was shown by the average value of five plantings.
as §1, §2, §3

[4] = 50 ppm soil drench 250 ml/plant 4 days after settled planting
[5] = 50 ppm soil drench 250 ml/plant 7 days after settled planting
[6] = 50 ppm soil drench 250 ml/plant 14 days after settled planting
[7] = 50 ppm soil drench 250 ml/plant just after settled planting
[8] = with rainfall treatment 20 mm, 50 ppm soil drench 250 ml/plant 4 days after settled planting
[9] = with rainfall treatment 20 mm, 50 ppm soil drench 250 ml/plant 7 days after settled planting
[10] = with rainfall treatment 20 mm, 50 ppm soil drench 250 ml/plant 14 days after settled planting
[11] = with rainfall treatment 20 mm, 50 ppm soil drench 250 ml/plant just after settled planting
[12] = without rainfall treatment, 50 ppm soil drench 250 ml/plant just after settled planting
[13] = 50 ppm soil drench 250 ml/plant 3 days after settled planting
[14] = 50 ppm soil drench 250 ml/plant 10 days after settled planting

**Q.** Which results are given for `Cc1ccc(-c2c(Cl)nc(C#N)n2S(=O)(=O)N(C)C)cc1` [cyazofamid, 4-chloro-2-cyano-1-dimethylsulfamoyl-5-(4-methylphenyl)imidazole]?
**A.** Weight in the aerial part (Plasmodiophora brassicae [1]; [4]): 109 g; Disease control value (Plasmodiophora brassicae [1]; [4]): 81; Disease severity (Plasmodiophora brassicae [1]; [4]): 15; Weight in the aerial part (Plasmodiophora brassicae [1]; [5]): 109 g; Disease control value (Plasmodiophora brassicae [1]; [5]): 88; Disease severity (Plasmodiophora brassicae [1]; [5]): 10; Weight in the aerial part (Plasmodiophora brassicae [1]; [6]): 91 g; Disease control value (Plasmodiophora brassicae [1]; [6]): 0; Disease severity (Plasmodiophora brassicae [1]; [6]): 80; Weight in the aerial part (Plasmodiophora brassicae [1]; [7]): 104 g; Disease control value (Plasmodiophora brassicae [1]; [7]): 100; Disease severity (Plasmodiophora brassicae [1]; [7]): 0; Control effect (Plasmodiophora brassicae [1]; 50 ppm soil drench, treatment within 7 days after settled planting): a control effect which was sufficient for practical use was obtained; Weight in the aerial part (Plasmodiophora brassicae [2]; [8]): 133 g; Disease control value (Plasmodiophora brassicae [2]; [8]): 100; Disease severity (Plasmodiophora brassicae [2]; [8]): 0; Weight in the aerial part (Plasmodiophora brassicae [2]; [9]): 129 g; Disease control value (Plasmodiophora brassicae [2]; [9]): 93; Disease severity (Plasmodiophora brassicae [2]; [9]): 5; Weight in the aerial part (Plasmodiophora brassicae [2]; [10]): 103 g; Disease control value (Plasmodiophora brassicae [2]; [10]): 29; Disease severity (Plasmodiophora brassicae [2]; [10]): 50; Weight in the aerial part (Plasmodiophora brassicae [2]; [11]): 121 g; Disease control value (Plasmodiophora brassicae [2]; [11]): 100; Disease severity (Plasmodiophora brassicae [2]; [11]): 0; Control effect (Plasmodiophora brassicae [2]; with rainfall treatment, soil drench within 7 days after settled planting): a practical control effect was obtained; Weight in the aerial part (Plasmodiophora brassicae [2]; [12]): 129 g; Disease control value (Plasmodiophora brassicae [2]; [12]): 100; Disease severity (Plasmodiophora brassicae [2]; [12]): 0; Weight in the aerial part (Plasmodiophora brassicae [3]; [13]): 156 g; Disease control value (Plasmodiophora brassicae [3]; [13]): 75; Disease severity (Plasmodiophora brassicae [3]; [13]): 20; Weight in the aerial part (Plasmodiophora brassicae [3]; [5]): 168 g; Disease control value (Plasmodiophora brassicae [3]; [5]): 69; Disease severity (Plasmodiophora brassicae [3]; [5]): 25; Weight in the aerial part (Plasmodiophora brassicae [3]; [14]): 164 g; Disease control value (Plasmodiophora brassicae [3]; [14]): 50; Disease severity (Plasmodiophora brassicae [3]; [14]): 40; Weight in the aerial part (Plasmodiophora brassicae [3]; [6]): 163 g; Disease control value (Plasmodiophora brassicae [3]; [6]): 31; Disease severity (Plasmodiophora brassicae [3]; [6]): 55; Weight in the aerial part (Plasmodiophora brassicae [3]; [7]): 164 g; Disease control value (Plasmodiophora brassicae [3]; [7]): 81; Disease severity (Plasmodiophora brassicae [3]; [7]): 15
